{"source": "patent EP3378852A1", "about": "“AMORPHOUS FORM OF APREMILAST, PREPARATION METHOD THEREFOR, AND APPLICATION THEREOF” (Changzhou Ainuoxinrui Pharmaceuticals, Ltd., priority 2015, dated 2017)", "format_in_all_cases": "physicochemical", "key": {"[1]": {"assay": "Determination of apparent solubility (shake flask, 37 °C, 12 h, HPLC external standard)", "details": "for solubility at 12 h: thermodynamic from solid; for solubility at 12 h / Apparent solubility: 37 °C ± 0.5 °C, 12h", "procedure": "Example 11: Determination of Apparent solubility\nThe apparent solubility of the amorphous form of Apremilast in the present invention and the Apremilast crystal form is compared.\nThe test objects were as follows: the amorphous form of Apremilast obtained in Example 1 of the present invention; the crystal Form B of Apremilast was prepared according to the patent CN102702070 Example 12. […]\nPreparation of diluents of different pH: • (1) pH=1.0 diluent: Add 9 mL of concentrated HCl to a 1000 mL of volumetric flask, diluted to the volume with water. • (2) pH=2.0 diluent: Solution A: Transfer 16.6 mL of phosphoric acid to a 100 mL volumetric flask, dilute to the volume with water, shake to mix. Solution B: Weigh and transfer 71.63g of […] phosphate to a 1000 mL of volumetric flask, dilute to the volume with water, dissolve and mix well. […]\nExample 51: Determination of Apparent solubility\nThe test objects were as follows: the solid dispersion of amorphous Apremilast obtained in Example 23 of the present invention; the physical mixture comprising Apremilast crystalline (Apremilast crystal Form B, sorbitol and polyacrylic resin Eudragit L100 were mixed physically, and the weight ratio is 1:1:1, and the crystal Form B of Apremilast was prepared according to the patent CN102702070 Example 12.)."}, "[2]": {"assay": "Impact factor test (high temperature / high humidity stress stability; related substances by HPLC, crystallinity by XRPD)", "procedure": "Example 9: Impact factor test of the amorphous Apremilast\nMaterial: Amorphous Apremilast was prepared according to the method of Example 1\n(§1) Experiment conditions: temperature 40 °C ± 2 °C, humidity 75% ± 5%\nThe substance was detected by HPLC.\nExample 46: Impact factor test of the solid dispersion of amorphous Apremilast and hydroxypropylcellulose SSL and povidone K30\nMaterial: the solid dispersion of amorphous Apremilast and hydroxypropylcellulose SSL and povidone K30 was prepared according to the method of Example 12\nExperiment conditions: temperature 40 °C ± 2 °C, humidity 75% ± 5% The substance was detected by HPLC.\nExample 49: Impact factor test of the solid dispersion of amorphous Apremilast, sorbitol and polyacrylic resin Eudragit L100 […]"}, "[3]": {"assay": "Accelerated stability test (related substances by HPLC, crystallinity by XRPD)", "details": "for Related substances (Total impurities %) / crystalline (XRPD): Temperature: 40°C±2°C, Humidity: 75%±5%", "procedure": "Example 10: Accelerated stability test of the amorphous Apremilast\nMaterial: amorphous Apremilsat was prepared according to the method of Example 1.\nas §1\nThe substance was detected by HPLC. […]"}, "[4]": {"details": "Temperature 40 °C ± 2 °C, 0 day"}, "[5]": {"details": "Temperature 40 °C ± 2 °C, 5 days"}, "[6]": {"details": "Temperature 40 °C ± 2 °C, 10 days"}, "[7]": {"details": "Temperature 60 °C ± 2 °C, 0 day"}, "[8]": {"details": "Temperature 60 °C ± 2 °C, 5 days"}, "[9]": {"details": "Temperature 60 °C ± 2 °C, 10 days"}, "[10]": {"details": "conditions of high temperature, high humidity after 10 days"}, "[11]": {"details": "accelerated test conditions after 6 months"}}}
{"compound": "CCOc1cc([C@@H](CS(C)(=O)=O)N2C(=O)c3cccc(NC(C)=O)c3C2=O)ccc1OC", "note": "[amorphous Apremilast, N-[2-[(1S)-1-(3-ethoxy-4-Methoxyphenyl)-2-(Methylsulfonyl)ethyl]-2,3-dihydro-1,3-dioxo-1H-isoindol-4-yl]-Acetamide]", "values": [{"measurement": "apparent solubility compared with the crystal form or the physical mixture comprising crystal Form B", "setting": "[1]; at each pH", "value": "significantly higher"}, {"measurement": "apparent solubility increases", "setting": "[1]; in most pH conditions", "value": "more than 60%"}, {"measurement": "solubility at 12 h", "setting": "[1]; pH 3.0 acetate diluent, 37 °C, pH 3, aqueous buffer, pH value of Dilution 3.0", "value": 66.8, "unit": "µg/mL"}, {"measurement": "solubility at 12 h", "setting": "[1]; pH 4.5 diluent, 37 °C, pH 4.5, aqueous buffer, pH value of Dilution 4.5", "value": 42.2, "unit": "µg/mL"}, {"measurement": "solubility at 12 h", "setting": "[1]; pH 6.8 phosphate diluent, 37 °C, pH 6.8, aqueous buffer, pH value of Dilution 6.8", "value": 23.2, "unit": "µg/mL"}, {"measurement": "solubility at 12 h", "setting": "[1]; pH 7.4 phosphate diluent, 37 °C, pH 7.4, aqueous buffer, pH value of Dilution 7.4", "value": 18.7, "unit": "µg/mL"}, {"measurement": "Apparent solubility", "setting": "[1]; pH value of Dilution 2.0, listed as The amorphous form of Apremilast obtained in Example 1", "value": 19.32, "unit": "µg/mL"}, {"measurement": "Apparent solubility", "setting": "[1]; pH value of Dilution 5.0, listed as The amorphous form of Apremilast obtained in Example 1", "value": 22.81, "unit": "µg/mL"}, {"measurement": "solubility at 12 h", "setting": "[1]; phthalate buffer pH 5.6, 37 °C, pH 5.6, aqueous buffer, pH value of Dilution 5.6", "value": 30, "unit": "µg/mL"}, {"measurement": "Related substances (Total impurities %)", "setting": "[2]; Humidity 75%±5%, 0 day", "value": 0.08, "unit": "%"}, {"measurement": "crystalline (XRPD)", "setting": "[2]; Humidity 75%±5%, 0 day", "value": "There is no peak of crystalline Apremilast"}, {"measurement": "Related substances (Total impurities %)", "setting": "[2]; Humidity 75%±5%, 5 days", "value": 0.08, "unit": "%"}, {"measurement": "crystalline (XRPD)", "setting": "[2]; Humidity 75%±5%, 5 days", "value": "There is no peak of crystalline Apremilast"}, {"measurement": "Related substances (Total impurities %)", "setting": "[2]; Humidity 75%±5%, 10 days", "value": 0.09, "unit": "%"}, {"measurement": "crystalline (XRPD)", "setting": "[2]; Humidity 75%±5%, 10 days", "value": "There is no peak of crystalline Apremilast"}, {"measurement": "Related substances (Total impurities %)", "setting": "[2]; Humidity 90%±5%, 0 day", "value": 0.08, "unit": "%"}, {"measurement": "crystalline (XRPD)", "setting": "[2]; Humidity 90%±5%, 0 day", "value": "There is no peak of crystalline Apremilast"}, {"measurement": "Related substances (Total impurities %)", "setting": "[2]; Humidity 90%±5%, 5 days", "value": 0.09, "unit": "%"}, {"measurement": "crystalline (XRPD)", "setting": "[2]; Humidity 90%±5%, 5 days", "value": "There is no peak of crystalline Apremilast"}, {"measurement": "Related substances (Total impurities %)", "setting": "[2]; Humidity 90%±5%, 10 days", "value": 0.11, "unit": "%"}, {"measurement": "crystalline (XRPD)", "setting": "[2]; Humidity 90%±5%, 10 days", "value": "There is no peak of crystalline Apremilast"}, {"measurement": "Related substances (Total impurities %)", "setting": "[2]; [4]", "value": 0.08, "unit": "%"}, {"measurement": "crystalline (XRPD)", "setting": "[2]; [4]", "value": "There is no peak of crystalline Apremilast"}, {"measurement": "Related substances (Total impurities %)", "setting": "[2]; [5]", "value": 0.10, "unit": "%"}, {"measurement": "crystalline (XRPD)", "setting": "[2]; [5]", "value": "There is no peak of crystalline Apremilast"}, {"measurement": "Related substances (Total impurities %)", "setting": "[2]; [6]", "value": 0.12, "unit": "%"}, {"measurement": "crystalline (XRPD)", "setting": "[2]; [6]", "value": "There is no peak of crystalline Apremilast"}, {"measurement": "Related substances (Total impurities %)", "setting": "[2]; [7]", "value": 0.08, "unit": "%"}, {"measurement": "crystalline (XRPD)", "setting": "[2]; [7]", "value": "There is no peak of crystalline Apremilast"}, {"measurement": "Related substances (Total impurities %)", "setting": "[2]; [8]", "value": 0.12, "unit": "%"}, {"measurement": "crystalline (XRPD)", "setting": "[2]; [8]", "value": "There is no peak of crystalline Apremilast"}, {"measurement": "Related substances (Total impurities %)", "setting": "[2]; [9]", "value": 0.14, "unit": "%"}, {"measurement": "crystalline (XRPD)", "setting": "[2]; [9]", "value": "There is no peak of crystalline Apremilast"}, {"measurement": "changes in the related substances", "setting": "[2]; [10]", "value": "no significant changes"}, {"measurement": "crystallization of Apremilast", "setting": "[2]; [10]", "value": "no crystallization of Apremilast was observed"}, {"measurement": "Related substances (Total impurities %)", "setting": "[3]; 0 month", "value": 0.08, "unit": "%"}, {"measurement": "crystalline (XRPD)", "setting": "[3]; 0 month", "value": "There is no peak of crystalline Apremilast"}, {"measurement": "Related substances (Total impurities %)", "setting": "[3]; 1 month", "value": 0.10, "unit": "%"}, {"measurement": "crystalline (XRPD)", "setting": "[3]; 1 month", "value": "There is no peak of crystalline Apremilast"}, {"measurement": "Related substances (Total impurities %)", "setting": "[3]; 2 months", "value": 0.14, "unit": "%"}, {"measurement": "crystalline (XRPD)", "setting": "[3]; 2 months", "value": "There is no peak of crystalline Apremilast"}, {"measurement": "Related substances (Total impurities %)", "setting": "[3]; 3 months", "value": 0.16, "unit": "%"}, {"measurement": "crystalline (XRPD)", "setting": "[3]; 3 months", "value": "There is no peak of crystalline Apremilast"}, {"measurement": "Related substances (Total impurities %)", "setting": "[3]; 6 months", "value": 0.18, "unit": "%"}, {"measurement": "crystalline (XRPD)", "setting": "[3]; 6 months", "value": "There is no peak of crystalline Apremilast"}, {"measurement": "changes in the related substances", "setting": "[3]; [11]", "value": "no significant changes"}, {"measurement": "crystallization of Apremilast", "setting": "[3]; [11]", "value": "no crystallization of Apremilast was observed"}]}
{"compound": "CCOc1cc([C@@H](CS(C)(=O)=O)N2C(=O)c3cccc(NC(C)=O)c3C2=O)ccc1OC", "note": "[The crystal Form B of Apremilast, N-[2-[(1S)-1-(3-ethoxy-4-Methoxyphenyl)-2-(Methylsulfonyl)ethyl]-2,3-dihydro-1,3-dioxo-1H-isoindol-4-yl]-Acetamide, reference compound]", "values": [{"measurement": "Apparent solubility", "setting": "[1]; pH value of Dilution 2.0", "value": 7.86, "unit": "µg/mL"}, {"measurement": "Apparent solubility", "setting": "[1]; pH value of Dilution 3.0", "value": 48.12, "unit": "µg/mL"}, {"measurement": "Apparent solubility", "setting": "[1]; pH value of Dilution 4.5", "value": 24.18, "unit": "µg/mL"}, {"measurement": "Apparent solubility", "setting": "[1]; pH value of Dilution 5.0", "value": 9.99, "unit": "µg/mL"}, {"measurement": "Apparent solubility", "setting": "[1]; pH value of Dilution 5.6", "value": 16.71, "unit": "µg/mL"}, {"measurement": "Apparent solubility", "setting": "[1]; pH value of Dilution 6.8", "value": 12.53, "unit": "µg/mL"}, {"measurement": "Apparent solubility", "setting": "[1]; pH value of Dilution 7.4", "value": 10.71, "unit": "µg/mL"}]}
